Source: patent publication US8598344B2, “CDKI pathway inhibitors and uses thereof” (Senex Biotechnology, priority 2009, dated 2013)
Read-outs that look alike come from different tables or passages of the source.

What was measured:
[1] = tested on: induction of transcription by p21 (CDKI pathway, CMV promoter-GFP) in HT1080 fibrosarcoma cells; test: Cellular assay for CDKI pathway inhibition: CMV-GFP induction by IPTG-inducible p21 in HT1080 reporter cells; assay type: cell-based, human
Method: Briefly, the reporter cell line described in the above-referenced application, which carries IPTG (isopropyl-β-thio-galactoside)-inducible p21 gene together with a p21-inducible promoter driving the expression of Green Fluorescent Protein (GFP) was plated in 96-well plates, at 2000 cells per well for the no-IPTG arm of the assay and at 5000 cells per well for the IPTG arm of the assay. To induce the maximal levels of p21, IPTG was added to 50 μM concentration. Serial 2-fold dilutions of the tested compounds were added in quadruplicates to wells with and without IPTG, ˜10 min after IPTG addition.
This assay is based on the induction of green fluorescent protein (GFP) expression from the cytomegalovirus (CMV) promoter in human HT1080 fibrosarcoma cells that express CDKI p21 from an isopropyl-(3-thio-galactoside (IPTG)-inducible promoter. The compound activity as a CDKI pathway inhibitor is measured by its ability to prevent the stimulation of the CMV promoter upon the addition of p21-inducing IPTG. CMV promoter activity is measured by the ratio of GFP fluorescence to the relative cell number, as determined by staining cellular DNA with Hoechst 33342. This assay was conducted in two modes. […]

[2] = tested on: several other types of human cells; conditions: Aoki et al., 2007; read-out: antiproliferative activity against several other types of human cells; cited from earlier work
RIOK2 = molecular target: T1, RIOK2 (Homo sapiens, UniProt Q9BVS4); conditions: 10 μM; data from Cee et al. (2009); cited from earlier work
T1 construct: purchased KinomeScan, a division of Ambit Biosciences

PKACb = molecular target: T2, PKACb (Homo sapiens, UniProt P22694); conditions: 10 μM; data from Cee et al. (2009); cited from earlier work
T2 construct: purchased KinomeScan, a division of Ambit Biosciences

CDK19 [3] = molecular target: T3, CDK19 (Homo sapiens, UniProt Q9BWU1); conditions: cited from earlier work
T3 construct: purchased KinomeScan, a division of Ambit Biosciences

MET = molecular target: T4, MET (Homo sapiens, UniProt P08581); conditions: 10 μM; data from Cee et al. (2009); cited from earlier work
T4 construct: purchased KinomeScan, a division of Ambit Biosciences

[4] = tested on: human umbilical vein endothelial cells (HUVECs); conditions: Aoki et al., 2007; read-out: IC50, proliferation of HUVECs; cited from earlier work
PKACa = molecular target: T5, PKACa (Homo sapiens, UniProt P17612); conditions: 10 μM; data from Cee et al. (2009); cited from earlier work
T5 construct: purchased KinomeScan, a division of Ambit Biosciences

ROS1 = molecular target: T6, ROS1 (Homo sapiens, UniProt P08922); conditions: 10 μM; data from Cee et al. (2009); cited from earlier work
T6 construct: purchased KinomeScan, a division of Ambit Biosciences

LTK = molecular target: T7, LTK (Homo sapiens, UniProt P29376); conditions: 10 μM; data from Cee et al. (2009); cited from earlier work
T7 construct: purchased KinomeScan, a division of Ambit Biosciences

PRKG2 = molecular target: T8, PRKG2 (Homo sapiens, UniProt Q13237); conditions: 10 μM; data from Cee et al. (2009); cited from earlier work
T8 construct: purchased KinomeScan, a division of Ambit Biosciences

CLK4 = molecular target: T9, CLK4 (Homo sapiens, UniProt Q9HAZ1); conditions: 10 μM; data from Cee et al. (2009); cited from earlier work
T9 construct: purchased KinomeScan, a division of Ambit Biosciences

JNK1 = molecular target: T10, JNK1 (Homo sapiens, UniProt P45983); conditions: 10 μM; data from Cee et al. (2009); cited from earlier work
T10 construct: purchased KinomeScan, a division of Ambit Biosciences

ROCK1 = molecular target: T11, ROCK1 (Homo sapiens, UniProt Q13464); conditions: cited from earlier work
T11 construct: purchased KinomeScan, a division of Ambit Biosciences

CIT = molecular target: T12, CIT (Homo sapiens, UniProt O14578); conditions: 10 μM; data from Cee et al. (2009); cited from earlier work
T12 construct: purchased KinomeScan, a division of Ambit Biosciences

PIM2 = molecular target: T13, PIM2 (Homo sapiens, UniProt Q9P1W9); conditions: 10 μM; data from Cee et al. (2009); cited from earlier work
T13 construct: purchased KinomeScan, a division of Ambit Biosciences

ALK = molecular target: T14, ALK (Homo sapiens, UniProt Q9UM73); conditions: 10 μM; data from Cee et al. (2009); cited from earlier work
T14 construct: purchased KinomeScan, a division of Ambit Biosciences

ROCK2 = molecular target: T15, ROCK2 (Homo sapiens, UniProt O75116); conditions: cited from earlier work
T15 construct: purchased KinomeScan, a division of Ambit Biosciences

CDK8 = molecular target: T16, CDK8 (Homo sapiens, UniProt P49336); test: KinomeScan competition binding assay; conditions: read-out: CDK8 inhibition (Kd)
T16 construct: purchased KinomeScan, a division of Ambit Biosciences
Text: (§1) This similarity led us to test SNX14 for the ability to inhibit 285 kinases, using the services of KinaseProfiler of Millipore Corporation (285 kinases). […] The KINOMEscan assay has been described in detail in Fabian et al., Nat. Biotechnol. 23: 329 (2005) and Karaman et al., Nat. Biotechnol. 26: 127 (2008).
(§2) The KinomeScan assay is based on a competition binding assay that quantitatively measures the ability of a compound to compete with an immobilized, ATP site directed ligand. The assay is performed by combining three components: DNA-tagged kinase; immobilized ligand; and a test compound. The ability of the test compound to compete with the immobilized ligand is measured via quantitative PCR of the DNA tag. […] The CDKs tested by Millipore for inhibition with SNX14 included CDK1, CDK2, CDK3, CDK5, CDK7 and CDK9; none of these were inhibited to less than 49 percent of control (POC) activity. The CDKs tested by KinomeScan for the effect of Compound 1 included CDK2, CDK3, CDK4, CDK5, CDK7, CDK8, CDK9 and CDK19; aside from CDK8 and CDK19, the strongest inhibited CDK was CDK7 (33% POC binding). To determine the inhibition of which kinases correlates with the biological activity of SNX2-class compounds, we tested eight additional compounds of the SNX2 family, which gave different IC50 values in the cellular assays, for the ability to affect 24 kinases that were most susceptible to compound 1, through the services of KinomeScan. […] We have also determined the binding constant (Kd) for SNX14, compound 1, compound 20, compound 26, compound 43 and compound 14 in kinase assays for CDK8 and CDK19 (Table 1).

CDK19 [5] = molecular target: T3, CDK19; test: KinomeScan competition binding assay; conditions: read-out: CDK19 inhibition (Kd)
Text: as §1, §2

CDK7 = CDK7 (Homo sapiens, UniProt P50613); test: KinaseProfiler (Millipore) kinase inhibition; assay type: biochemical; set-up: purchased KinaseProfiler of Millipore Corporation; conditions: 10 μM
Text: as §1
as §2, with “binding).” for “binding). To determine the inhibition of which kinases correlates with the biological activity of SNX2-class compounds, we tested eight additional compounds of the SNX2 family, which gave different IC50 values in the cellular assays, for the ability to affect 24 kinases that were most susceptible to compound 1, through the services of KinomeScan.”

CDK9 = molecular target: T17, CDK9 (Homo sapiens, UniProt P50750); test: KinaseProfiler (Millipore) kinase inhibition; assay type: biochemical; conditions: 10 μM
T17 construct: purchased KinaseProfiler of Millipore Corporation
Text: as §1, §2

CDK2 = molecular target: T18, CDK2 (Homo sapiens, UniProt P24941); test: KinaseProfiler (Millipore) kinase inhibition; assay type: biochemical; conditions: 10 μM
T18 construct: purchased KinaseProfiler of Millipore Corporation
Text: as §1, §2

CDK3 = molecular target: T19, CDK3 (Homo sapiens, UniProt Q00526); test: KinaseProfiler (Millipore) kinase inhibition; assay type: biochemical; conditions: 10 μM
T19 construct: purchased KinaseProfiler of Millipore Corporation
Text: as §1, §2

CDK1 = molecular target: T20, CDK1 (Homo sapiens, UniProt P06493); test: KinaseProfiler (Millipore) kinase inhibition; assay type: biochemical; conditions: 10 μM
T20 construct: purchased KinaseProfiler of Millipore Corporation
Text: as §1, §2

CDK5 = molecular target: T21, CDK5 (Homo sapiens, UniProt Q00535); test: KinaseProfiler (Millipore) kinase inhibition; assay type: biochemical; conditions: 10 μM
T21 construct: purchased KinaseProfiler of Millipore Corporation
Text: as §1, §2

[6] = 10 μM, data from Cee et al. (2009)

T3 sequence (Q9BWU1 whole entry): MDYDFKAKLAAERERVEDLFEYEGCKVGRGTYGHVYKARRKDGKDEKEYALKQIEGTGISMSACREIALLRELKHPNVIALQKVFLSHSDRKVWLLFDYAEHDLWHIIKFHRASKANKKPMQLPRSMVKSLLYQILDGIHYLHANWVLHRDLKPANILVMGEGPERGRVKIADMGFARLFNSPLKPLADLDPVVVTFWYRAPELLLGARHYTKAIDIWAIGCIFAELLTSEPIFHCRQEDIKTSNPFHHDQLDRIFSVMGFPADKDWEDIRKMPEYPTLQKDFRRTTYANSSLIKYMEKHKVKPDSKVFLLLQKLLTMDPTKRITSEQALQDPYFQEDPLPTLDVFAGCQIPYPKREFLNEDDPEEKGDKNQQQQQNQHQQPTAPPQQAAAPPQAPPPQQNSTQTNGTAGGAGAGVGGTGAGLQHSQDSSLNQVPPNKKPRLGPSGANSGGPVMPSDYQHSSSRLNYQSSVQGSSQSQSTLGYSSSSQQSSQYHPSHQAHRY
T11 sequence (Q13464 whole entry): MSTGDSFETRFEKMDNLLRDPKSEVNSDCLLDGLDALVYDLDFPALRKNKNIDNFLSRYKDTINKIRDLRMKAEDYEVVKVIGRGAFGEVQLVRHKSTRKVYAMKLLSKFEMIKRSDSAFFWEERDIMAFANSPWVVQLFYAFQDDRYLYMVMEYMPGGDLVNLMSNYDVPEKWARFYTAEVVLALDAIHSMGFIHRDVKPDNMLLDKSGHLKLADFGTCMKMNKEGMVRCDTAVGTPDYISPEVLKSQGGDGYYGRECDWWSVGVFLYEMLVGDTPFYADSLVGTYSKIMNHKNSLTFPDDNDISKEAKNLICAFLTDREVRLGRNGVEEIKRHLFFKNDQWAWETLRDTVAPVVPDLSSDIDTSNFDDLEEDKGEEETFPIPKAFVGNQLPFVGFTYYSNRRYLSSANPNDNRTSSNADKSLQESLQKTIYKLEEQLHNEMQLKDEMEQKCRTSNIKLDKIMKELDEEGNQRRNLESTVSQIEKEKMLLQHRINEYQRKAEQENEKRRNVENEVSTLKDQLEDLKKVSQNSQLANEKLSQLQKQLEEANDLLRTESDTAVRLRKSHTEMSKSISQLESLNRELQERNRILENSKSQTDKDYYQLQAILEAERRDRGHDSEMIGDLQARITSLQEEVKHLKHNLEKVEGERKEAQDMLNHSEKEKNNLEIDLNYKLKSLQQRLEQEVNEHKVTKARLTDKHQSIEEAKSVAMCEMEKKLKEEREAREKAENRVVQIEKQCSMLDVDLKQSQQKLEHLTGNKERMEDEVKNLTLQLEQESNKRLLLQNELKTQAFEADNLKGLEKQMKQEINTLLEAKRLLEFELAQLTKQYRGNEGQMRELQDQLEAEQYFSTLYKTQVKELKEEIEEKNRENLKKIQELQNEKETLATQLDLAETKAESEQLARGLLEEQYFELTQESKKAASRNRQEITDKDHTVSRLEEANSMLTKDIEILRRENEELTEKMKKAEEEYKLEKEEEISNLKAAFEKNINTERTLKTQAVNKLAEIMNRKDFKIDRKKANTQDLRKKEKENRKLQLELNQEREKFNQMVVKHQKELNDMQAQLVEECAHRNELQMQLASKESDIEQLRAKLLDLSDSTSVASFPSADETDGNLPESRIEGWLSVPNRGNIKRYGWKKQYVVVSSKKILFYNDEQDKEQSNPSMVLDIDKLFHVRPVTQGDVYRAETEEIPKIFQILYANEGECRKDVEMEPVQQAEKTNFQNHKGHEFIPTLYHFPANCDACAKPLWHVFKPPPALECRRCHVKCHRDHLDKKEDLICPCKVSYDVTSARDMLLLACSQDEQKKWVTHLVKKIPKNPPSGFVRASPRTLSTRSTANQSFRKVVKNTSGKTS
T15 sequence (O75116 whole entry): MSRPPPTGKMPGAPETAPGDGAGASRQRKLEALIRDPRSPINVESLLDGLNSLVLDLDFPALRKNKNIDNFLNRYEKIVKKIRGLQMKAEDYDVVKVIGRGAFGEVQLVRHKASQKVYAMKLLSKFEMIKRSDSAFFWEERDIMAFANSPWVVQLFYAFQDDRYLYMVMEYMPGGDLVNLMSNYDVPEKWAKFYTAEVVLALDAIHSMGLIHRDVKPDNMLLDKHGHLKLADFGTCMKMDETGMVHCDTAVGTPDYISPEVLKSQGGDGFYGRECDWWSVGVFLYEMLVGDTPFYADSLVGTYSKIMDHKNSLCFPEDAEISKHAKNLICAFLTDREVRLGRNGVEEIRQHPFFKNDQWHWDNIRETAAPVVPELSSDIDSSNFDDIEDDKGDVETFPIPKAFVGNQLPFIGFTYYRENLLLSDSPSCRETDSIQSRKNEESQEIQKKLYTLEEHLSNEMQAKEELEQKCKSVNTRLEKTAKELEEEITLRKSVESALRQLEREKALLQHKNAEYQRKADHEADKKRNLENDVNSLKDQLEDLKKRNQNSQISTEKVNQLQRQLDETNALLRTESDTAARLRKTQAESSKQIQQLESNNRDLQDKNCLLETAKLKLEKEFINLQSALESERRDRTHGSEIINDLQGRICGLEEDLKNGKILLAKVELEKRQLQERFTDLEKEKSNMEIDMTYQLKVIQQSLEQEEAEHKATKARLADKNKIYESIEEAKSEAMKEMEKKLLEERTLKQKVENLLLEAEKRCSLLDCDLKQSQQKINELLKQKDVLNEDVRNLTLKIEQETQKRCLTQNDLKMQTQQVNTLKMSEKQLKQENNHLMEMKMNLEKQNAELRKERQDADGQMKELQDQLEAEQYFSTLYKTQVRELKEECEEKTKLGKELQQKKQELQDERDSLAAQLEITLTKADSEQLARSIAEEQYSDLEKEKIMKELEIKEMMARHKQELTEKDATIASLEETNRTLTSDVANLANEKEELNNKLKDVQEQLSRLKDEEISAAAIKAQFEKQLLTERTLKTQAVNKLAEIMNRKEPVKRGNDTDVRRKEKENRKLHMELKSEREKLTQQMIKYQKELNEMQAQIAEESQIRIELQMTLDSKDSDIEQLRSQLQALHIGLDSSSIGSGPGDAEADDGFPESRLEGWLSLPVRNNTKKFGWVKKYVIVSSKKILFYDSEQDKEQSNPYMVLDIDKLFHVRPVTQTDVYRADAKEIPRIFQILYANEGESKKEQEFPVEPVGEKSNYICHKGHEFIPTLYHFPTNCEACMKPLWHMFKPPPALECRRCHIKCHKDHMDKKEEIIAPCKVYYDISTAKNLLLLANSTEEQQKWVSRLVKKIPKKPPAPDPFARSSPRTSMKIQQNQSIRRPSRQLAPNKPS
T16 sequence (P49336 whole entry): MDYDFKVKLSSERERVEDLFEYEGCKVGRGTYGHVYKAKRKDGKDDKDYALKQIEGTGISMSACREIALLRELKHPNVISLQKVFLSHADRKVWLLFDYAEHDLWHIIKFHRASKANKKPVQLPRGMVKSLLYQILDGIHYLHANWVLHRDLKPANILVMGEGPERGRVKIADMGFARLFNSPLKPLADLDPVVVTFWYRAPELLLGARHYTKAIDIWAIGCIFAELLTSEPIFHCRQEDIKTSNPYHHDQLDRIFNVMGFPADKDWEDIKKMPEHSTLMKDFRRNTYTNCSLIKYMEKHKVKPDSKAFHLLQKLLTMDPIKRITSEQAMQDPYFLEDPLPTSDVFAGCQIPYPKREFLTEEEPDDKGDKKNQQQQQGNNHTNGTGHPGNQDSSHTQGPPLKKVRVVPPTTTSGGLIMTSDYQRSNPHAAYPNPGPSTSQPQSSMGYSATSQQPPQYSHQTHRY
T10 sequence (P45983 whole entry): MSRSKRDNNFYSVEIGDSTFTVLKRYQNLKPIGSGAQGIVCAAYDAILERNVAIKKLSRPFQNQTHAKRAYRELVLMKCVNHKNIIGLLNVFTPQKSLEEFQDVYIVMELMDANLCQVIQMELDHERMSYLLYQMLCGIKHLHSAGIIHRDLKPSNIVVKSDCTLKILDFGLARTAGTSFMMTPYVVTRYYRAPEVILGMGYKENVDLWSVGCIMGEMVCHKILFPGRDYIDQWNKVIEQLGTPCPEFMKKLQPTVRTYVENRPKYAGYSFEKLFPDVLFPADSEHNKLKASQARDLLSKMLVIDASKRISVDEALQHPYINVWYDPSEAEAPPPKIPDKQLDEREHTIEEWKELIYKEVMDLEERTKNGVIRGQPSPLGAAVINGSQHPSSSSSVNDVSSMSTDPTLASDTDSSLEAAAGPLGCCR
T21 sequence (Q00535 whole entry): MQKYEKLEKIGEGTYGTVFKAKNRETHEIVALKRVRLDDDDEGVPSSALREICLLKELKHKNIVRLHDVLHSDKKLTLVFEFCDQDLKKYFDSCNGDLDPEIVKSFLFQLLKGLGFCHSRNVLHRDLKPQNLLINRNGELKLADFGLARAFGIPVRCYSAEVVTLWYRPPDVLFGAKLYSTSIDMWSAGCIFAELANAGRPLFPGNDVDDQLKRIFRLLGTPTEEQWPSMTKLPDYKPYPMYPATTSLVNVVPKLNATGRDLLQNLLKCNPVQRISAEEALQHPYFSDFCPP
T21 sequence (Q15078 99-307 partner limits assumed): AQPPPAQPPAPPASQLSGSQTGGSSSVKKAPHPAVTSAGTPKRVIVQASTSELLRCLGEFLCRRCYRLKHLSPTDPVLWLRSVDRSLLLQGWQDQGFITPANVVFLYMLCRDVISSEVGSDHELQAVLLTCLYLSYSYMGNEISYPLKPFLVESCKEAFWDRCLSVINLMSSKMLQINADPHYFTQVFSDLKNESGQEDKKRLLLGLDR
T13 sequence (Q9P1W9 whole entry): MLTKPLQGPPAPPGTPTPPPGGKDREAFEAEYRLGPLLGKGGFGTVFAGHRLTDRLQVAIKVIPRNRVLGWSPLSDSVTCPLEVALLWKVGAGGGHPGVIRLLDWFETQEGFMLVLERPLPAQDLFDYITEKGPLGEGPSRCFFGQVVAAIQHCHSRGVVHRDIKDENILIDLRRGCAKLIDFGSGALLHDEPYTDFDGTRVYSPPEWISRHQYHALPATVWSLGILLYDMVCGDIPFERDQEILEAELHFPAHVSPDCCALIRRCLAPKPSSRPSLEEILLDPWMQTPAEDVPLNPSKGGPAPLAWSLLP

COc1cc2ncnc(Nc3ccc(F)c(Cl)c3)c2cc1OCCCN1CCOCC1 [gefitinib, reference compound]
CDKI pathway inhibition [1]: inactive

cortistatin A
IC50 [2]: 6 to 7 µM | POC, RIOK2 (RIOK2): 21 POC | POC, PKACb (PKACb): 13 POC | POC, CDK19 (CDK19 [3]; [6]): 0.1 POC | Kd (CDK19 [3]; Cee et al. (2009)): 0.01 µM | POC, MET (MET): 18 POC | IC50 [4]: 0.0018 µM | POC, PKACa (PKACa): 8.7 POC | POC, ROS1 (ROS1): 26 POC | POC, LTK (LTK): 2.9 POC | POC, PRKG2 (PRKG2): 21 POC | POC, CLK4 (CLK4): 26 POC | POC, JNK1 (JNK1): 29 POC | POC, ROCK1 (ROCK1; [6]): 21 POC | Kd (ROCK1; Cee et al. (2009), read-out: Kd ROCK I): 0.25 µM | POC, CIT (CIT): 28 POC | POC, PIM2 (PIM2): 4.4 POC | POC, ALK (ALK): 4.4 POC | POC, ROCK2 (ROCK II) (ROCK2; [6]): 0 POC | Kd (ROCK2; Cee et al. (2009), read-out: Kd ROCK II): 0.22 µM

Ic1ccc2ncnc(NCCc3ccccc3)c2c1 [compound 3]
IC50 ([1]; read-out: IC50, p21 induced by 8 μM IPTG, 8 μM IPTG, 72 hours): 1.85 µM

CC(C)Nc1ncnc2ccc(I)cc12 [SNX14]
Kd (CDK8): 10 µM | Kd (CDK19 [5]): 3.8 µM | percent of control (POC) activity, CDK7 (CDK7): ≥ 49% of control (POC) | IC50 ([1]; Table 1, IC50 calculated on the basis of the maximal inhibition produced by the highest doses, IPTG mode (50 μM or 2 μM) not stated, read-out: Cell-based assay (IC50)): 6.43 µM | percent of control (POC) activity, CDK9 (CDK9): ≥ 49% of control (POC) | percent of control (POC) activity, CDK2 (CDK2): ≥ 49% of control (POC) | percent of control (POC) activity, CDK3 (CDK3): ≥ 49% of control (POC) | percent of control (POC) activity, CDK1 (CDK1): ≥ 49% of control (POC) | percent of control (POC) activity, CDK5 (CDK5): ≥ 49% of control (POC)
